# From patent US20070259861A1, “Combination therapy with non-selective COX inhibitors to prevent COX-related gastric injuries” (Pharmena North America Inc., priority 2006, published 2007)
# Tests used:
# [1] = system: prostacyclin (PGI2) release; details: cited from earlier work; for release of prostacyclin: animal models
# gastric mucosa = assay: ASA- and WRS-induced gastric lesions in non-diabetic and streptozocin-diabetic rats; assay type: in vivo; details: for rise of gastric blood flow (GBF): H2-gas clearance
# Method: In this study, streptozocin (70 mg/kg injected intraperitoneally) was used to induce diabetes mellitus and non-diabetic and diabetic rats were pretreated 30 min prior to exposure to aspirin (ASA; 150 mg/kg in 0.1 N HCl i.g.) or 3.5 h of water immersion and restraint stress (WRS) with 1) vehicle (saline) or 2) MNA (2.5-50 mg/kg i.g.). The area and number of gastric lesions was determined by planimetry, gastric blood flow (GBF) was examined by H2-gas clearance technique, and mieloperoxidase (MPO) activity, activity of superoxide dismutase (SOD) and the malonyldialdehyde (MDA) concentration as an index of lipid peroxidation were determined in gastric mucosa using ELISA. The gene expression IL-1β and TNF-α in the gastric mucosa and their plasma levels were evaluated by RT-PCR and ELISA, respectively. […] This experiment is also described in an abstract published for Digestive Disease Week 2006 (May 20-25, 2006, Los Angeles, Calif.; http://www.medscape.com/viewprogram/5452).
# [2] = ASA 150 mg/kg in 0.1 N HCl i.g.
molecule,measurement,setting,value
1-methyl-3-acetylpyridinium salt,release of prostacyclin,[1],ability to induce the release of prostacyclin
"CNC(=O)c1cccnc1 [MNA, N-methylnicotinamide]",secretion of PGI2,[1]; thrombolytic assay,stimulate the secretion of PGI2
same,decrease of mucosal SOD activity and increase of MDA,gastric mucosa; ASA- and WRS-exposed animals without or with diabetes,markedly attenuated
same,WRS-induced gastric erosions,"gastric mucosa; MNA 2.5-50 mg/kg i.g. 30 min before 3.5 h WRS, diabetic and non-diabetic rats",dose-dependently attenuated
same,ASA-induced gastric erosions,"gastric mucosa; MNA 2.5-50 mg/kg i.g. 30 min before ASA 150 mg/kg i.g., diabetic and non-diabetic rats",dose-dependently attenuated
same,IL-1β and TNF-α,gastric mucosa; gastric mucosa expression (RT-PCR) and plasma levels (ELISA),downregulation
same,rise of gastric blood flow (GBF),gastric mucosa; injured gastric mucosa,~33%
same,rise of gastric blood flow (GBF),gastric mucosa; intact gastric mucosa,about 22%
C[n+]1cccc(C(=O)NCO)c1 [1-methyl-N′-(hydroxymethyl)nicotinamide],release of prostacyclin,[1],ability to induce the release of prostacyclin
C[n+]1cccc(C(N)=O)c1 [1-methylnicotinamide chloride],release of prostacyclin,[1],ability to induce the release of prostacyclin
"CC(=O)Oc1ccccc1C(=O)O [ASA, aspirin]",gastric lesions,gastric mucosa; [2],typical gastric lesions
same,reduction of GBF from basal,gastric mucosa; [2],35%
same,increase of MPO activity,"gastric mucosa; ASA 150 mg/kg in 0.1 N HCl i.g., gastric mucosa",2-3 fold
same,mucosal SOD activity,gastric mucosa; ASA-exposed animals without or with diabetes,significantly decreased
same,MDA activity (lipid peroxidation),"gastric mucosa; ASA-exposed animals without or with diabetes, gastric mucosa",significantly increased
same,plasma levels of TNF-α and IL-1,"gastric mucosa; ASA-exposed, ELISA",marked increase
same,mRNAs for TNF-α and IL-1,"gastric mucosa; ASA-exposed, gastric mucosa, RT-PCR",overexpression
